Measurements published in patent US10792377B2, “Compounds and method for imaging cancer” (Vanderbilt University, priority 2017, dated 2020).
Read-outs that look alike come from different tables or passages of the source.

Legend:
ovine COX-1 = target: T1, ovine COX-1 (Ovis aries, UniProt P05979); assay: In vitro purified COX-1 inhibition assay (TLC, 14C-arachidonic acid); format: biochemical
T1 sequence (P05979 25-600): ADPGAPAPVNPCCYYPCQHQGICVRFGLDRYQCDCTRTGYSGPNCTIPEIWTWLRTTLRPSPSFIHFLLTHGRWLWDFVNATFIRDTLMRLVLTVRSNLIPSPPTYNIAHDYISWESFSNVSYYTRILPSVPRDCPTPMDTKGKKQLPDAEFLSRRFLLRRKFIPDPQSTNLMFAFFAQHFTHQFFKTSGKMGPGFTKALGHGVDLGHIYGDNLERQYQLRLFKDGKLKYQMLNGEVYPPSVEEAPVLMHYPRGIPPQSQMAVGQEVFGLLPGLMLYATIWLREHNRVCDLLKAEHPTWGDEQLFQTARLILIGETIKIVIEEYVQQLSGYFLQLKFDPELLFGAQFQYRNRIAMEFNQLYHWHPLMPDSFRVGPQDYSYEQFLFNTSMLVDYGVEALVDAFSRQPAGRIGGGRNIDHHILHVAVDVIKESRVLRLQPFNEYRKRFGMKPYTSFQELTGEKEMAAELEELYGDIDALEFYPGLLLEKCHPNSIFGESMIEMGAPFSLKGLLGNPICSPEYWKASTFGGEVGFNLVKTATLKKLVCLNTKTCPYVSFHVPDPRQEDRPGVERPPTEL
Procedure: (§1) The in vitro cyclooxygenase (ovine COX-1 or human COX-2) inhibitory activities of these probes were tested by a previously described TLC assay (FIGS. 19-21). Briefly, reaction mixtures of 200 μL consisted of hematin-reconstituted protein in 100 mM Tris-HCl, pH 8.0, 500 μM phenol, and [1-^14C]arachidonic acid (50 μM, about 55-57 mCi/mmol, Perkin Elmer).
Inhibition Assay Using Purified COX-1 and COX-2. Inhibition of purified ovine COX-1 or mouse COX-2 by test compounds was assayed by a previously described method, which quantifies the conversion of [1-^14C]arachidonic acid to [1-^14C]prostaglandin products. Reaction mixtures of 200 ∝L consisted of hematin-reconstituted protein in 100 mM Tris-HCl, pH 8.0, 500 μM phenol, and [1-^14C]arachidonic acid (50 μM, ˜55-57 mCi/mmol, Perkin Elmer). […] Reactions were terminated by solvent extraction in diethyl ether:methanol:1 M citrate buffer, pH 4.0 (30:4:1). The phases were separated by centrifugation at 2000 g for 2 min, and the organic phase was spotted on a thin-layer chromatography plate (EMD Kieselgel 60, VWR). The plate was developed in ethyl acetate:methylene chloride:glacial AcOH (75:25:1) at 4° C. Radiolabeled products were quantified with a radioactivity scanner (Bioscan, Inc., Washington, D.C.).

murine COX-2 = target: T2, murine COX-2 (Mus musculus, UniProt Q05769); assay: In vitro purified COX-2 inhibition assay (TLC, 14C-arachidonic acid); format: biochemical; details: for COX-2 Selectivity Index (COX-1 IC50/COX-2 IC50): in vitro, purified enzymes
T2 sequence (Q05769 18-604): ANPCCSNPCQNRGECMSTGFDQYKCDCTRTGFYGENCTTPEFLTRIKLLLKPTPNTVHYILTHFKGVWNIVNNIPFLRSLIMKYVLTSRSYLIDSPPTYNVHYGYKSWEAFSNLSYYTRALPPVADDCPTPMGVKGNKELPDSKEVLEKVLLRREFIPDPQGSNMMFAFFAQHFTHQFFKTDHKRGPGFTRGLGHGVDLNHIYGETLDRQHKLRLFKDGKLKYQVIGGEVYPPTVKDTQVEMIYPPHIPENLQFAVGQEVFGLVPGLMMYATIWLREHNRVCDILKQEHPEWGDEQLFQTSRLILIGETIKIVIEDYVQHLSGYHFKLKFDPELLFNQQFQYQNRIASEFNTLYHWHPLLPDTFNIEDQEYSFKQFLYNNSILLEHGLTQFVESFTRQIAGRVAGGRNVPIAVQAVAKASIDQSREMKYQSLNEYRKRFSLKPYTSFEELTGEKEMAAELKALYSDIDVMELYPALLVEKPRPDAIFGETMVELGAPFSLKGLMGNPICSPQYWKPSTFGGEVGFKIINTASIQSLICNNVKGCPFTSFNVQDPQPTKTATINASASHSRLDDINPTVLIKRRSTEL
Procedure: as §1
Inhibition Assay Using Purified COX-1 and COX-2. Inhibition of purified ovine COX-1 or mouse COX-2 by test compounds was assayed by a previously described method, which quantifies the conversion of [1-^14C]arachidonic acid to [1-^14C]prostaglandin products. Reaction mixtures of 200 ∝L consisted of hematin-reconstituted protein in 100 mM Tris-HCl, pH 8.0, 500 μM phenol, and [1-^14C]arachidonic acid (50 μM, ˜55-57 mCi/mmol, Perkin Elmer). For the time-dependent inhibition assay, hematin-reconstituted COX-1 ([…]) was preincubated at 25° C. for 17 min and 37° C. for 3 min with varying inhibitor concentrations in dimethylsulfoxide followed by the addition of [1-^14C]arachidonic acid (50 μM) for 30 s at 37° C. Reactions were terminated by solvent extraction in diethyl ether:methanol:1 M citrate buffer, pH 4.0 (30:4:1). The phases were separated by centrifugation at 2000 g for 2 min, and the organic phase was spotted on a thin-layer chromatography plate (EMD Kieselgel 60, VWR). The plate was developed in ethyl acetate:methylene chloride:glacial AcOH (75:25:1) at 4° C. Radiolabeled products were quantified with a radioactivity scanner (Bioscan, Inc., Washington, D.C.).

hCOX-2 in 1483 cells = target: T3, hCOX-2 in 1483 cells (Homo sapiens, UniProt P35354); assay: Intact cell COX-2 inhibition assay in 1483 HNSCC cells; format: cell-based; details: high throughput screening, intact cancer cells; read-out: COX-2 positive 1483 HNSCC cells IC50
T3 construct: cells that express high levels of COX-2 were selected; endogenous in cells; host or cells: 1483 human head and neck squamous cell carcinoma (HNSCC) cells
T3 sequence (P35354 18-604): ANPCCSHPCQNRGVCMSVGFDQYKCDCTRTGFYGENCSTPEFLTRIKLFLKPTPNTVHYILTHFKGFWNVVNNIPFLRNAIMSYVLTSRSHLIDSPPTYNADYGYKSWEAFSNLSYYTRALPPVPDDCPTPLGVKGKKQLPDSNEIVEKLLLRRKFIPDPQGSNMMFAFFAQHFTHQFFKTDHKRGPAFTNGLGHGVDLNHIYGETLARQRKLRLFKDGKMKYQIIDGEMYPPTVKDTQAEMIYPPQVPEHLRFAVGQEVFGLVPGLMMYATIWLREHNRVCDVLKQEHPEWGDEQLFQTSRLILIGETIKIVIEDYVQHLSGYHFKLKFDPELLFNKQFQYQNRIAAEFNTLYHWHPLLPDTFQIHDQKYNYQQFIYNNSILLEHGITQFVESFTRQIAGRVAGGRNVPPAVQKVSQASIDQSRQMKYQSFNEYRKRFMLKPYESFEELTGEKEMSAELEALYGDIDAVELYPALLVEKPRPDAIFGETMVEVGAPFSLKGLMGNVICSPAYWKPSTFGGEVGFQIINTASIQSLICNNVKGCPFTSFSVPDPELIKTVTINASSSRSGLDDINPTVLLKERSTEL
Procedure: Following the promising results from the purified enzyme assay, the ability of compound 1 to inhibit COX-2 in intact cells was examined using a previously reported method. 1483 human head and neck squamous cell carcinoma (1483 HNSCC) cells that express high levels of COX-2 were selected. […]
Cell Culture and In Vitro Intact Cell Metabolism Assay. Inhibition of COX-2 in intact cells by test compounds was assayed by a previously described method. Human 1483 head and neck squamous cell carcinoma (HNSCC) cells (passage 8-18, mycoplasma negative by a polymerase chain reaction detection method) were cultured in DMEM/F12+10% fetal bovine serum+Antibiotic/Antimycotic in 6-well plates to 60% confluence. […] Reactions were terminated and analyzed by thin layer chromatography as described above.

[1] = tested on: 4T1 orthotopic breast cancer xenografts; assay: In vivo image-guidance of chemocoxib A delivery, orthotopic 4T1 breast cancer xenografts; details: tumor homogenate, LC-MS, 49 h after CA-FQ-NPs (1 mg/kg CA, 1 mg/kg FQ, s.c.)
Procedure: To generate orthotopic breast cancer xenografts, the 4T1 tumor cells (1×10^6 in 200 μL sterile PBS) were injected into the inguinal mammary fat-pads of athymic Balb/C nu/nu female mice (4-6 weeks old, Jax Mice). Tumors were full-grown by 4-5 weeks (tumor volume=length×width^2×0.52).
The animals were dosed with CA-FQ-NPs in PBS (1 mg/kg CA, 1 mg/kg FQ, s.c.) and imaged on a Xenogen IVIS200 optical imaging instrument at 0.5 h, 1 h, 3 h, 6 h, 28 h, and 49 h post-injection. […] After in vivo imaging, the 49 h animals group was euthanized, and brain, muscle, tumor, liver, lung, and kidney tissues were collected (FIG. 32D).

[2] = Fluorometry: extinction, quantum yield, fluorescence in DMSO/EtOH; format: physicochemical
Procedure: The TEMPO- and PROXYL-fluorocoxib probes are non-fluorescent (Φfl<0.3) in their non-trapped form, whereas fluorocoxib A or B are highly fluorescent (Φfl[…]) (FIG. 13). However, the absorbance and fluorescence of the TEMPO- and PROXYL-fluorocoxib probes increases in a time-dependent fashion when incubated in a DMSO/EtOH solution (FIGS. 14-15). Referring to FIG. 15, it is noted that at about 16 hours, fluorescence (ex 586 nm) read about 120,000 cps at 607 nm. Turning to FIG. 16, as compared to 5-ROX acid, which had extinction of 36/mM/cm at 580 nm and quantum yield of 0.94 at 604 nm, and fluorocoxib A, which had extinction of 45/mM/cm at 579 nm and quantum yield of 0.93 at 602 nm, fluorocoxib Q1 had extinction of less than 0.4/mM/cm at 586 nm and quantum yield of less than 0.36 at 607 nm. Without wishing to be bound by theory, it is believed that the time-dependent increase in fluorescence and measured fluorescence at 607 nm is the result of reduction/oxidation of fluorocoxib Q1 in the DMSO/EtOH solution (FIG. 16).
Fluorometry. Steady state fluorescence excitation and emission spectra were determined for each compound with a Spex 1681 Fluorolog spectrofluorometer, equipped with a 450 W xenon arc lamp. […]

[3] = COX-2 IC50, in vitro purified cox assay
[4] = mCOX-2 IC50, purified murine COX-2 (63 nM), inhibitor 20 min, then 1-14C-AA (50 μM) 37° C. 30 s, duplicates

With `COc1ccc2c(c1)c(CC(=O)NCCCCNC(=O)c1ccc(C(=O)NC3CC(C)(C)N([O])C(C)(C)C3)c(C3=c4cc5c6c(c4Oc4c3cc3c7c4CCCN7CCC3)CCC[N+]=6CCC5)c1)c(C)n2C(=O)c1ccc(Cl)cc1` [Compound 2] the IC50 (ovine COX-1) was > 25000 nM, the IC50 (murine COX-2; [3]) was 332 nM and the “COX-2 Selectivity Index (COX-1 IC50/COX-2 IC50)” value (murine COX-2) was >75. It also gave an IC50 (murine COX-2; [4]) of 330 nM.

With `COc1ccc2c(c1)c(CC(=O)NCCCCNC(=O)c1ccc(C3=c4cc5c6c(c4Oc4c3cc3c7c4CCCN7CCC3)CCC[N+]=6CCC5)c(C(=O)NCC3CC(C)(C)N([O])C3(C)C)c1)c(C)n2C(=O)c1ccc(Cl)cc1` (centres unmarked) [Compound 5] the IC50 (ovine COX-1) was > 25000 nM, the “COX-2 Selectivity Index (COX-1 IC50/COX-2 IC50)” value (murine COX-2) was >13 and the IC50 (murine COX-2; [4]) was 1800 nM.

For `COc1ccc2c(c1)c(CC(=O)NCCCCNC(=O)c1ccc(C(=O)[O-])c(C3=c4cc5c6c(c4Oc4c3cc3c7c4CCCN7CCC3)CCC[N+]=6CCC5)c1)c(C)n2C(=O)c1ccc(Cl)cc1` [Fluorocoxib B, reference compound], the IC50 (ovine COX-1; purified ovine COX-1 (22.5 nM), inhibitor 20 min, then 1-14C-AA (50 μM) 37° C. 30 s, duplicates, read-out: oCOX-1 IC50) was > 25000 nM, the “COX-2 Selectivity Index (COX-1 IC50/COX-2 IC50)” value (murine COX-2) was >31 and the IC50 (murine COX-2; purified murine COX-2 (63 nM), inhibitor 20 min, then 1-14C-AA (50 μM) 37° C. 30 s, duplicates, read-out: mCOX-2 IC50) was 800 nM.

With `COc1ccc2c(c1)c(CC(=O)NCCCCNC(=O)CCC(=O)O[C@H]1c3cc4c(cc3[C@@H](c3cc(OC)c(OC)c(OC)c3)[C@H]3C(=O)OC[C@@H]31)OCO4)c(C)n2C(=O)c1ccc(Cl)cc1` [chemocoxib A, reference compound] the IC50 (hCOX-2 in 1483 cells) was 200 nM and the “level in tumor tissue” value [1] was 3.1 pmol/g tissue.

For `COc1ccc2c(c1)c(CC(=O)NCCCCNC(=O)c1ccc(C3=c4cc5c6c(c4Oc4c3cc3c7c4CCCN7CCC3)CCC[N+]=6CCC5)c(C(=O)Nc3ccc(C(=O)OC4CC(C)(C)N([O])C(C)(C)C4)cc3)c1)c(C)n2C(=O)c1ccc(Cl)cc1` [Compound 3], the IC50 (ovine COX-1) was > 25000 nM, the IC50 (murine COX-2; [3]) was 460 nM and the “COX-2 Selectivity Index (COX-1 IC50/COX-2 IC50)” value (murine COX-2) was >54.

Work on `O=C(O)c1ccc(C(=O)[O-])c(C2=c3cc4c5c(c3Oc3c2cc2c6c3CCCN6CCC2)CCC[N+]=5CCC4)c1` [5-ROX acid] yielded an extinction ([2]; at 580 nm (5-ROX acid), 579 nm (fluorocoxib A), 586 nm (fluorocoxib Q1)) of 36 mM⁻¹ cm⁻¹ and a quantum yield ([2]; at 604 nm (5-ROX acid), 602 nm (fluorocoxib A), 607 nm (fluorocoxib Q1)) of 0.94.

For `COc1ccc2c(c1)c(CC(=O)NCCCCNC(=O)c1ccc(C3=c4cc5c6c(c4Oc4c3cc3c7c4CCCN7CCC3)CCC[N+]=6CCC5)c(C(=O)OC3CC(C)(C)N([O])C(C)(C)C3)c1)c(C)n2C(=O)c1ccc(Cl)cc1` [Compound 4], the IC50 (ovine COX-1) was > 25000 nM, the “COX-2 Selectivity Index (COX-1 IC50/COX-2 IC50)” value (murine COX-2) was >20 and the IC50 (murine COX-2; [4]) was 1240 nM.
